Data on 27 molecules can be found in patent US20130096105A1, “ArylSulfonamide Based Matrix Metalloprotease Inhibitors” (NOVARTIS AG, priority 2008, published 2013).

Experiment [1] addresses Collagenase-3 (MMP-13) (Homo sapiens, UniProt P45452). Kind of experiment: Collagenase-3 (MMP-13) inhibitory activity, fluorogenic peptide substrate cleavage. Format: biochemical. To be noted: read-out: MMP13 IC50. Put shortly:
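Recombinant pro-MMP-13 activated with 1 mM APMA; inhibitor preincubated 60 min, then 5 μM MCA-Lys-Pro-Leu-Gly-Leu-Dpa-Ala-Arg-NH2 added in Tris-Cl pH 7.5 buffer with Zn2+, Ca2+, Brij-35, 1.0% DMSO, 20-25 °C. Fluorescence (ex 325/em 405 nm) read after 60 min; IC50 versus uninhibited control.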

Experiment [2] deals with T1, Gelatinase (MMP-2) (Homo sapiens, UniProt P08253).
T1 sequence (P08253 110-660): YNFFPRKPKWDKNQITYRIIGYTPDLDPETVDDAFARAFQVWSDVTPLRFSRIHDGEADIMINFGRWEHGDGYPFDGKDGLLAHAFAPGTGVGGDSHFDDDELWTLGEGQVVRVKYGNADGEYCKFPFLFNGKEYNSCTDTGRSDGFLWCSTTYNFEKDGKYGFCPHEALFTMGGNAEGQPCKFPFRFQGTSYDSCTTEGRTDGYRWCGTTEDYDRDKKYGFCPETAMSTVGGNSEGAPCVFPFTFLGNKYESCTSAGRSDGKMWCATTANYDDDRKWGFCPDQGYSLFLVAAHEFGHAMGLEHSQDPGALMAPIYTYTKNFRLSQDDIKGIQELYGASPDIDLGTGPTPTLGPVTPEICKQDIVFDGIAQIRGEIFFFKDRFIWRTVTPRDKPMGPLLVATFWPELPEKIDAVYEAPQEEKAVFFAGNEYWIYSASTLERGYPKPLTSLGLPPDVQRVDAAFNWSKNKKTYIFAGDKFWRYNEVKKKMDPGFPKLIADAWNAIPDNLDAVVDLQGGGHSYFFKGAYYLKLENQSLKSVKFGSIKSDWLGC
Kind of experiment: Gelatinase (MMP-2) inhibitory activity, fluorogenic peptide substrate cleavage. Type of experiment: biochemical. Conditions: read-out: MMP02 IC50. The method in brief: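 Fluorogenic assay with MCA-Lys-Pro-Leu-Gly-Leu-Dpa-Ala-Arg-NH2 at 5 μM in Tris-Cl pH 7.5 buffer with ZnCl2, CaCl2, Brij-35 and 1.0% DMSO, 20-25 °C. Enzyme preincubated with inhibitor 60 min; fluorescence (ex 325/em 405 nm) read 60 min after substrate addition. IC50 relative to uninhibited control.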

As usually defined, the IC50 is the concentration needed to halve the response being measured. For `NS(=O)(=O)c1cc(C(=O)c2ccc3c(-c4ccccc4)c[nH]c3c2)ccc1Cl` [Example 118, 2-Chloro-5-(3-phenyl-1H-indole-6-carbonyl)-benzenesulfonamide], the figures for the 50% inhibitory concentration (IC50) in experiment [1] and in experiment [2] were 1030 nM and 2000 nM, respectively.
For `CCOC(=O)N1CCc2[nH]c3cc(C(=O)c4ccc(Cl)c(S(N)(=O)=O)c4)ccc3c2C1` [Example 103, 7-(4-Chloro-3-sulfamoyl-benzoyl)-1,3,4,5-tetrahydro-pyrido[4,3-b]indole-2-carboxylic acid ethyl ester] the same measures were 360 nM and 850 nM.
The matching figures for `NS(=O)(=O)c1cc(C(=O)c2ccc3c(-c4ccnc(Cl)c4)c[nH]c3c2)ccc1Cl` [Example 136, 2-Chloro-5-[3-(2-chloro-pyridin-4-yl)-1H-indole-6-carbony]-benzenesulfonamide]: 250 nM and 18000 nM.
The matching figures for `NS(=O)(=O)c1cc(C(=O)c2ccc(-c3ccc(C(F)(F)F)cc3)cc2)ccc1Cl` [Example 62, 2-Chloro-5-(4′-trifluoromethyl-biphenyl-4-carbonyl)-benzenesulfonamide]: 830 nM and 2210 nM.
`CCCCCCOc1ccc(C(=O)c2ccc(Cl)c(S(N)(=O)=O)c2)cc1` [Example 21, 2-Chloro-5-(4-hexyloxy-benzoyl)-benzenesulfonamide]: the IC50 in experiment [1] turned out to be 860 nM; in experiment [2] it was 4730 nM.
The matching figures for `NS(=O)(=O)c1cc(C(=O)c2ccc(N3CCC(Cc4ccccc4)CC3)cc2)ccc1Cl` [Example 86, 5-[4-(4-Benzyl-piperidin-1-yl)-benzoyl]-2-chloro-benzenesulfonamide]: 7670 nM and > 30000 nM.
For `NS(=O)(=O)c1cc(C(=O)c2ccc3c(c2)CCC3)ccc1Cl` [Example 94, 2-Chloro-5-(indane-5-carbonyl)-benzenesulfonamide] the same measures were 22600 nM and 23500 nM.
For `COc1ccc(C(=O)c2cc(F)c(F)c(S(N)(=O)=O)c2)cc1` [Example 4, 2,3-Difluoro-5-(4-methoxy-benzoyl)-benzenesulfonamide], the IC50 in experiment [1] came to 5730 nM; in experiment [2], 4680 nM.
For `NS(=O)(=O)c1cc(C(=O)c2ccc(C3CCCC3)cc2)ccc1Cl` [Example 28, 2-Chloro-5-(4-cyclopentyl-benzoyl)-benzenesulfonamide] the same measures were 4490 nM and 4260 nM.
As to `COc1ccc(C(=O)c2ccc([N+](=O)[O-])c(S(N)(=O)=O)c2)cc1` [Example 5, 5-(4-Methoxy-benzoyl)-2-nitro-benzenesulfonamide], the IC50 was found to be 1390 nM in experiment [1] and 1060 nM in experiment [2].
For `NS(=O)(=O)c1cc(C(=O)c2ccc(N3CC=CC3)cc2)ccc1Cl` [Example 81, 2-Chloro-5-[4-(2,5-dihydro-pyrrol-1-yl)-benzoyl]-benzenesulfonamide] the same measures were 1010 nM and 1310 nM.
For the molecule `NS(=O)(=O)c1cc(C(=O)c2ccc(-n3cccc3)cc2)ccc1Cl` [Example 82, 2-Chloro-5-(4-pyrrol-1-yl-benzoyl)-benzenesulfonamide], the IC50 was 860 nM in experiment [1] and 1150 nM in experiment [2].
In the case of `NS(=O)(=O)c1cc(C(=O)c2ccc3cc[nH]c3c2)ccc1Cl` [Example 115, 2-Chloro-5-(1H-indole-6-carbonyl)-benzenesulfonamide], the IC50 worked out at 178 nM in experiment [1] and 218 nM in experiment [2].
For `NS(=O)(=O)c1cc(C(=O)c2ccc(-c3ccccc3F)cc2)ccc1Cl` [Example 64, 2-Chloro-5-(2′-fluoro-biphenyl-4-carbonyl)-benzenesulfonamide] the same measures were 7550 nM and 4050 nM.
The matching figures for `CCN1C(=O)CCC2=C1Cc1cc(C(=O)c3ccc(Cl)c(S(N)(=O)=O)c3)ccc12` [Example 108, 2-Chloro-5-(1-ethyl-2-oxo-2,3,4,9-tetrahydro-1H-indeno[2,1-b]pyridine-7-carbonyl)-benzenesulfonamide]: 4110 nM and 2900 nM.
For `CCc1cc(-c2c[nH]c3cc(C(=O)c4ccc(Cl)c(S(N)(=O)=O)c4)ccc23)ccn1` [Example 138, 2-Chloro-5-[3-(2-ethyl-pyridin-4-yl)-1H-indole-6-carbonyl]-benzenesulfonamide] the same measures were 60 nM and 3550 nM.
Turning to `NS(=O)(=O)c1cc(C(=O)c2ccc(C3CCCCC3)cc2)ccc1Cl` [Example 29, 2-Chloro-5-(4-cyclohexyl-benzoyl)-benzenesulfonamide], the results for the IC50 in experiment [1] and in experiment [2] were 11300 nM and 13300 nM, respectively.
For `NS(=O)(=O)c1cc(C(=O)c2ccc3c(-c4ccncc4)c[nH]c3c2)ccc1Cl` [Example 135, 2-Chloro-5-(3-pyridin-4-yl-1H-indole-6-carbonyl)-benzenesulfonamide] the same measures were 90 nM and 1050 nM.
For `NS(=O)(=O)c1cc(C(=O)c2ccc3c(-c4cccnc4)c[nH]c3c2)ccc1Cl` [Example 130, 2-Chloro-5-(3-pyridin-3-yl-1H-indole-6-carbonyl)benzenesulfonamide], the IC50 in experiment [1] worked out at 240 nM; in experiment [2], 2620 nM.
Regarding `Cc1cc(-c2c[nH]c3cc(C(=O)c4ccc(Cl)c(S(N)(=O)=O)c4)ccc23)ccn1` [Example 137, 2-Chloro-5-[3-(2-methyl-pyridin-4-yl)-1H-indole-6-carbonyl]-benzenesulfonamide], the IC50 is 41 nM in experiment [1] and 3450 nM in experiment [2].
The matching figures for `NS(=O)(=O)c1cc(C(=O)c2ccc(-c3ccc(C(=O)O)cc3)cc2)ccc1Cl` [Example 73, 4′-(4-Chloro-3-sulfamoyl-benzoyl)-biphenyl-4-carboxylic acid]: 610 nM and 980 nM.
For `C[Si](C)(C)C#Cc1ccc(C(=O)c2ccc(Cl)c(S(N)(=O)=O)c2)cc1` [Example 30, 2-Chloro-5-(4-trimethyl-silanylethynyl-benzoyl)-benzenesulfonamide] the same measures were 1690 nM and 1230 nM.
The matching figures for `CCc1n[nH]c2cc(C(=O)c3ccc(Cl)c(S(N)(=O)=O)c3)ccc12` [Example 99, 2-Chloro-5-(3-ethyl-1H-indazole-6-carbonyl)-benzenesulfonamide]: 250 nM and 270 nM.
For `NS(=O)(=O)c1cc(C(=O)c2ccc(N3CCC(c4ccccc4)CC3)cc2)ccc1Cl` [Example 85, 2-Chloro-5-[4-(4-phenyl-piperidin-1-yl)-benzoyl]benzenesulfonamide], the IC50 in experiment [1] stood at 570 nM; in experiment [2] it was 2050 nM.
The matching figures for “2-Chloro-5-(4-cyclopropyl-benzoyl)-benzenesulfonamide [Example 27]”: 9640 nM and 7460 nM.
The matching figures for `NS(=O)(=O)c1cc(C(=O)c2ccc3nc[nH]c3c2)ccc1Cl` [Example 97, 5-(3H-Benzoimidazole-5-carbonyl)-2-chloro-benzenesulfonamide]: 630 nM and 1210 nM.
For the molecule `O=C(c1ccc(-c2cccc(CO)c2)cc1)c1ccc(Cl)c(S(=O)(=O)O)c1` [Example 71, 2-Chloro-5-(3′-hydroxymethyl-biphenyl-4-carbonyl)-benzenesulfonic acid], the IC50 is 1400 nM in experiment [1] and 1090 nM in experiment [2].
